Measured values as given in PMC6160999, “Pharmacokinetics, Tissue Distribution and Excretion of a Novel Diuretic (PU-48) in Rats” (Pharmaceutics, 2018).
Read-outs that look alike come from different tables or passages of the source.

Key:
[1] = Tissue distribution after single oral PU-48 SNEDDS; assay type: in vivo; conditions: rat, oral PU-48 SNEDDS 12 mg/kg
Procedure: Internal standard (IS, 25 μL) was added to 50 μL plasma, urine, or bile sample in a clean tube, placed into a water bath at 37 °C, and dried under a gentle stream of nitrogen gas, followed by the addition of 0.5 mL of ethyl acetate for liquid-liquid extraction. The mixture was shaken by a vortex mixer for 3 min, and then centrifuged at 8000 rpm (4200× g) for 10 min at 4 °C. After centrifugation, the upper organic phase was transferred into a clean centrifuge tube and then dried it again. The combined upper organic phases were evaporated to dryness at 37 °C under a gentle stream of nitrogen gas. The residue was reconstituted with 50 μL acetonitrile and then centrifuged at 13,000 rpm (12,000× g) for 10 min at 4 °C, the upper liquid was transferred into sample vials. Finally, 5 μL aliquots were injected into the LC–MS/MS system to analyze. Each tissue samples were homogenized in normal saline (0.9% NaCl, 1:3, w/v), and then centrifuged at 10,000× g for 10 min to get the supernatant. Other steps were the same as plasma sample preparation.
Thirty rats were divided randomly into five groups and the rats were given single orally administration of PU-48 (12 mg/kg, 1.2 mg/mL in the SNEDDS formulation). […] After the final time point, the rats were sacrificed and thirteen tissues (liver, spleen, lung, kidney, heart, muscle, colon, intestine, stomach, bladder, testicle, adipose, brain) were collected. Tissues samples were rinsed with ice-cold 0.9% normal saline and blotted dry with filter paper. All the samples were weighted and stored at −20 °C until analysis.

plasma protein = test: Plasma protein binding by equilibrium dialysis, human plasma; assay type: in vitro ADME; conditions: for Concentration in Buffer (post-dialysis) / Concentration in Plasma (post-dialysis) / Protein-Binding Ratio: human plasma, n=5; for Concentration in Buffer (post-dialysis) / Concentration in Plasma (post-dialysis): 37 °C 24 h
Procedure: The concentration of PU-48 prototype in biological sample (feces and plasma protein binding analysis) was determined using a validated high-performance liquid chromatographic (HPLC) method our preliminary experiment (See Supplementary Materials HPLC Analysis and Method Validation). Briefly, the quantitative analysis of PU-48 was performed using a HPLC consistent of model 510 pump with a model 2487 ultraviolet detector, a model Rheodyne 7725 injector, and a column oven. The analytical conditions were as follows—The detection wavelength—293 nm; analytical column—a reversed-phase Acclaim C18 (4.6 mm × 250 mm, 5.0 µm, Dionex, Sunnyvale, CA, USA); column temperature—25 °C; mobile phase—acetonitrile—distilled water at a ratio of 60:40 (v/v); flow rate—1 mL/min. In this study, the methods for the feces samples were evaluated for specificity, linearity, precision, accuracy, and recovery (See Supplementary Materials Tables S4–S6).
The binding ratio of PU-48 to plasma protein was determined by equilibrium dialysis. A volume of 1 mL of plasma with PU-48 (0.25, 1 and 4 µg/mL) was added to a semi-permeable membrane bag (plasma chamber), the bag was place into the other clean tube with 9 mL PBS (buffer chamber). The equilibrium dialysis was performed at 37 °C for 24 h. At the end of dialysis, 500 μL each of post-dialysis samples from the plasma and the buffer chambers were collected and analyzed by HPLC method. The plasma protein binding of PU-48 was calculated from the concentration of PU-48 in PBS (free concentration) and in plasma (free + bound) according to equation: Bound (%) = (Concplasma chamber − Concbuffer chamber)/Concplasma chamber × 100%.

[2] = cited from earlier work
[3] = bladder, read-out: Concentration of PU-48 in bladder
[4] = brain, read-out: Concentration of PU-48 in brain
[5] = colon, read-out: Concentration of PU-48 in colon
[6] = fat, read-out: Concentration of PU-48 in fat
[7] = heart, read-out: Concentration of PU-48 in heart
[8] = intestine, read-out: Concentration of PU-48 in intestine
[9] = kidney, read-out: Concentration of PU-48 in kidney
[10] = liver, read-out: Concentration of PU-48 in liver
[11] = lung, read-out: Concentration of PU-48 in lung
[12] = male, testicle, read-out: Concentration of PU-48 in testicle
[13] = muscle, read-out: Concentration of PU-48 in muscle
[14] = plasma, read-out: Concentration of PU-48 in plasma
[15] = spleen, read-out: Concentration of PU-48 in spleen
[16] = stomach, read-out: Concentration of PU-48 in stomach

SMILES: COC(=O)c1sc2nc3ccc(OC)cc3cc2c1N [PU-48, Methyl 3-amino-6-methoxythieno [2,3-b] quinoline-2-carboxylate]
- concentration at 0.5 h [1, 3]: 258 ± 94.2 ng/g
- concentration at 1 h [1, 3]: 368 ± 124 ng/g
- concentration at 6 h [1, 3]: 43.4 ± 10.7 ng/g
- concentration at 12 h [1, 3]: 6.1 ± 3.2 ng/g
- concentration at 24 h [1, 3]: 8.6 ± 6.5 ng/g
- concentration at 0.5 h [1, 4]: 111 ± 23.3 ng/g
- concentration at 1 h [1, 4]: 68.1 ± 52.7 ng/g
- concentration at 6 h [1, 4]: 15.7 ± 19.3 ng/g
- concentration at 12 h [1, 4]: 1.7 ± 1.5 ng/g
- concentration at 0.5 h [1, 5]: 90.4 ± 30 ng/g
- concentration at 1 h [1, 5]: 172 ± 89.5 ng/g
- concentration at 6 h [1, 5]: 35.2 ± 14.7 ng/g
- concentration at 12 h [1, 5]: 28.6 ± 21.7 ng/g
- concentration at 24 h [1, 5]: 14.1 ± 5.6 ng/g
- concentration at 0.5 h [1, 6]: 481 ± 398 ng/g
- concentration at 1 h [1, 6]: 99.3 ± 26.9 ng/g
- concentration at 6 h [1, 6]: 52.3 ± 43.2 ng/g
- concentration at 12 h [1, 6]: 2.7 ± 1.9 ng/g
- concentration at 24 h [1, 6]: 0.7 ± 0.6 ng/g
- concentration at 0.5 h [1, 7]: 251 ± 78.4 ng/g
- concentration at 1 h [1, 7]: 125 ± 31 ng/g
- concentration at 6 h [1, 7]: 11.3 ± 11.2 ng/g
- concentration at 24 h [1, 7]: 0.5 ng/g
- concentration at 0.5 h [1, 8]: 655 ± 89.3 ng/g
- concentration at 1 h [1, 8]: 777 ± 277 ng/g
- concentration at 6 h [1, 8]: 209 ± 166 ng/g
- concentration at 12 h [1, 8]: 45.4 ± 18.9 ng/g
- concentration at 24 h [1, 8]: 9 ± 4.7 ng/g
- concentration at 0.5 h [1, 9]: 416 ± 138 ng/g
- concentration at 1 h [1, 9]: 297 ± 241 ng/g
- concentration at 6 h [1, 9]: 44.5 ± 33.9 ng/g
- concentration at 12 h [1, 9]: 4.7 ± 1.1 ng/g
- concentration at 24 h [1, 9]: 5.3 ± 3.4 ng/g
- concentration at 0.5 h [1, 10]: 622 ± 183 ng/g
- concentration at 1 h [1, 10]: 534 ± 228 ng/g
- concentration at 6 h [1, 10]: 42.7 ± 27.3 ng/g
- concentration at 12 h [1, 10]: 13.4 ± 3.1 ng/g
- concentration at 24 h [1, 10]: 20.4 ± 12.2 ng/g
- concentration at 0.5 h [1, 11]: 231 ± 79.3 ng/g
- concentration at 1 h [1, 11]: 174 ± 91.4 ng/g
- concentration at 6 h [1, 11]: 7.2 ± 5.7 ng/g
- concentration at 12 h [1, 11]: 0.9 ± 0.1 ng/g
- concentration at 24 h [1, 11]: 1.3 ± 0.9 ng/g
- concentration at 0.5 h [1, 12]: 34.2 ± 21.2 ng/g
- concentration at 1 h [1, 12]: 51.7 ± 24.4 ng/g
- concentration at 6 h [1, 12]: 9.5 ± 8.5 ng/g
- concentration at 12 h [1, 12]: 1.5 ± 0.7 ng/g
- concentration at 24 h [1, 12]: 1.4 ± 1.1 ng/g
- concentration at 0.5 h [1, 13]: 39.8 ± 28.6 ng/g
- concentration at 1 h [1, 13]: 52 ± 25.5 ng/g
- concentration at 6 h [1, 13]: 4.5 ± 3.5 ng/g
- concentration at 12 h [1, 13]: 2 ± 1.9 ng/g
- concentration at 24 h [1, 13]: 1.4 ± 1.5 ng/g
- concentration at 0.5 h [1, 14]: 277 ± 42.4 ng/mL
- concentration at 1 h [1, 14]: 119 ± 63.5 ng/mL
- concentration at 6 h [1, 14]: 16.8 ± 26.4 ng/mL
- concentration at 12 h [1, 14]: 2.4 ± 1.7 ng/mL
- concentration at 24 h [1, 14]: 0.3 ± 0.1 ng/mL
- Peak concentration of PU-48 in brain [1]: 111.1 ± 23.3 ng/mL
- Blood brain barrier crossing ([1]; inferred from brain concentration): could cross the blood brain barrier (BBB)
- Tmax ([1]; thirteen tissues, read-out: Peak time (Tmax) of PU-48 in analyzed tissues): 30 to 60 min
- concentration at 0.5 h [1, 15]: 266 ± 120 ng/g
- concentration at 1 h [1, 15]: 161 ± 64 ng/g
- concentration at 6 h [1, 15]: 15.2 ± 12.9 ng/g
- concentration at 12 h [1, 15]: 3.8 ± 5.7 ng/g
- concentration at 24 h [1, 15]: 9.9 ± 12 ng/g
- concentration at 0.5 h [1, 16]: 887 ± 235 ng/g
- concentration at 1 h [1, 16]: 2020 ± 822 ng/g
- concentration at 6 h [1, 16]: 509 ± 160 ng/g
- concentration at 12 h [1, 16]: 104 ± 28.4 ng/g
- concentration at 24 h [1, 16]: 7 ± 3.1 ng/g
- concentration at 24 h ([1]; tissues except liver and colon, read-out: Concentrations of PU-48 in tissues except liver and colon): < 10 ng/g
- Concentration in Buffer (post-dialysis) (plasma protein; added 0.25 µg/mL): 12 ± 3 ng/mL
- Concentration in Plasma (post-dialysis) (plasma protein; added 0.25 µg/mL): 146 ± 8 ng/mL
- Protein-Binding Ratio (plasma protein; added 0.25 µg/mL): 91.60 ± 1.57%
- Concentration in Buffer (post-dialysis) (plasma protein; added 1 µg/mL): 52 ± 3 ng/mL
- Concentration in Plasma (post-dialysis) (plasma protein; added 1 µg/mL): 611 ± 27 ng/mL
- Protein-Binding Ratio (plasma protein; added 1 µg/mL): 91.48 ± 0.64%
- Concentration in Buffer (post-dialysis) (plasma protein; added 4 µg/mL): 231 ± 29 ng/mL
- Concentration in Plasma (post-dialysis) (plasma protein; added 4 µg/mL): 2290 ± 93 ng/mL
- Protein-Binding Ratio (plasma protein; added 4 µg/mL): 89.90 ± 1.50%
- fraction unbound at 24 h (plasma protein; plasma, human, overall statement): < 0.1
- Diuretic activity ([2]; rodents, compared to the other thienoquinolin lead compounds): more potent diuretic activity
- Diuretic activity ([2]; wild-type and UT-gene knockout mice): potent diuretic activity
